Test results from PMC4330362, “The ATP-mediated formation of the YgjD–YeaZ–YjeE complex is required for the biosynthesis of tRNA t^6A in Escherichia coli” (Nucleic Acids Research, 2015).
Blank lines part the entries; values can stand above or below the molecule they belong to.

Columns and labels:
[1] = molecular target: YeaZ (Salmonella typhimurium) (UniProt Q7CQE0); conditions: cited from earlier work
YjeE [2] = molecular target: T1, YjeE (Escherichia coli, UniProt P0AF67, W109A); assay: ITC; type: binding
T1 construct: gene tsaE; full length, C-terminal Strep II tag, expressed in E. coli BL21(DE3) from pET28a; monomer-dimer equilibrium

YjeE [3] = molecular target: T2, YjeE (Escherichia coli, UniProt P0AF67); assay: ITC; type: binding
T2 construct: gene tsaE; full length, C-terminal Strep II tag, expressed in E. coli BL21(DE3) from pET28a; monomer-dimer equilibrium

YgjD–YeaZ [4] = molecular target: T3, YgjD–YeaZ (Escherichia coli, UniProt P05852+P76256); assay: crystal structure […] A; type: binding; conditions: cocrystallised with ATP and MgCl2; two ADP: YgjD active site (Mg2+, Fe) and YgjD-YeaZ interface; no heat signal by ITC
T3 construct: gene tsaD; 1:1 heterodimer of full-length YgjD (337 residues) and YeaZ (231 residues), each C-terminally 6xHis tagged, expressed in E. coli BL21(DE3); nucleotide sites in the YgjD active site and at the YgjD-YeaZ interface

YgjD–YeaZ [5] = molecular target: T4, YgjD–YeaZ (Escherichia coli, UniProt P05852+P76256, P05852:V85E); assay: crystal structure; type: binding; conditions: crystallised in presence of ATP; no nucleotide at the interface
T4 construct: gene tsaD; 1:1 heterodimer of full-length YgjD (337 residues) and YeaZ (231 residues), each C-terminally 6xHis tagged, expressed in E. coli BL21(DE3); nucleotide sites in the YgjD active site and at the YgjD-YeaZ interface

YgjD = molecular target: T5, YgjD (Escherichia coli, UniProt P05852); assay: ITC; type: binding
T5 construct: gene tsaD; full length (337 residues), C-terminal 6xHis tag, expressed in E. coli BL21(DE3) from pET9a; homodimer in solution

YgjD–YeaZ [6] = molecular target: T3, YgjD–YeaZ; assay: ITC; type: binding
[7] = test system: Nc1ncnc2c1ncn2[C@@H]1O[C@H](COP(=O)(O)OP(=O)(O)OP(=O)(O)O)[C@@H](O)[C@H]1O; assay: purified protein; conditions: 50 mM HEPES pH 7.5, 20 °C, YjeE at 2 molar equivalents
YjeE [8] = molecular target: T6, YjeE (Escherichia coli, UniProt P0AF67, Y82A); assay: ITC; type: binding
T6 construct: gene tsaE; full length, C-terminal Strep II tag, expressed in E. coli BL21(DE3) from pET28a; monomer-dimer equilibrium

[9] = molecular target: the molecule itself; assay: SEC; HiLoad 16/60 Superdex 75 pg; single proteins and equimolar mixture

Molecule: YgjD (from UniProt P40731)
- Kd [1]: 0.3 µM

Molecule: Nc1ncnc2c1ncn2[C@@H]1O[C@H](COP(=O)(O)OP(=O)(O)O)[C@@H](O)[C@H]1O [ADP]
- Kd (YjeE [2]): 4.83 ± 0.022 µM
- Kd (YjeE [3]): 6.54 ± 0.053 µM
- crystal structure 2.3 A (YgjD–YeaZ [4]): An ADP molecule could unequivocally fit the density

Molecule: Nc1ncnc2c1ncn2[C@@H]1O[C@H](COP(=O)(O)OP(=O)(O)OP(=O)(O)O)[C@@H](O)[C@H]1O [ATP]
- crystal structure (YgjD–YeaZ [5]): YgjD^V85E(ATP)–YeaZ crystal structures under accession number

- Kd (YgjD): 1.62 ± 0.088 µM
- Kd (YgjD–YeaZ [6]): 0.7 ± 0.011 µM
Molecule: Nc1ncnc2c1ncn2[C@@H]1O[C@H](COP(=O)(O)CP(=O)(O)OP(=O)(O)O)[C@@H](O)[C@H]1O [AMPCPP]

Molecule: YgjD–YeaZ–2xYjeE complex (Escherichia coli K-12)
- Km [7]: 644 µM
- kcat [7]: 0.4 s⁻¹

Molecule: Nc1ncnc2c1ncn2[C@@H]1O[C@H](CO[P@](=O)(O)O[P@](=O)(O)O[P@@](=O)(O)S)[C@@H](O)[C@H]1O [ATPγS]
- Kd (YjeE [3]): 20.4 ± 1.32 µM
- Kd (YjeE [8]): 8.9 ± 0.013 µM

B1: YgjD (TsaD) (enzyme, Escherichia coli K-12, UniProt P05852 1-337, looked up)
chain: MRVLGIETSCDETGIAIYDDEKGLLANQLYSQVKLHADYGGVVPELASRDHVRKTVPLIQAALKESGLTAKDIDAVAYTAGPGLVGALLVGATVGRSLAFAWDVPAIPVHHMEGHLLAPMLEDNPPEFPFVALLVSGGHTQLISVTGIGQYELLGESIDDAAGEAFDKTAKLLGLDYPGGPLLSKMAAQGTAGRFVFPRPMTDRPGLDFSFSGLKTFAANTIRDNGTDDQTRADIARAFEDAVVDTLMIKCKRALDQTGFKRLVMAGGVSANRTLRAKLAEMMKKRRGEVFYARPEFCTDNGAMIAYAGMVRFKAGATADLGVSVRPRWPLAELPAA
notes: YgjD (TsaD), Escherichia coli K-12, 337 residues; gene amplified from genomic DNA, cloned in pET9a; Alone it is a homodimer by gel filtration and SAXS; also called Ec–YgjD; source: E. coli BL21(DE3), purified (details in the Supplementary Materials)
- stoichiometry N [9]: 2
